In assay [1] the target is Cyclin-dependent kinase 5 (Homo sapiens, UniProt Q00535). Nature of the assay: Selectivity interaction (LanthaScreen Eu Kinase Binding Assay) EUB0001632a CDK5. The settings on record: at 10 µM.
For assay [2], the target named is Ribosomal protein S6 kinase alpha-1 (Homo sapiens, UniProt Q15418). Briefly: Selectivity interaction (ActivX KiNativ screen (ex vivo kinase selectivity in human PBMCs)) EUB0001619a RPS6KA1. The class given is cell-based. The settings on record: PBMC, at 1 µM.
Ribosomal protein S6 kinase alpha-1, sequence (Q15418 whole entry): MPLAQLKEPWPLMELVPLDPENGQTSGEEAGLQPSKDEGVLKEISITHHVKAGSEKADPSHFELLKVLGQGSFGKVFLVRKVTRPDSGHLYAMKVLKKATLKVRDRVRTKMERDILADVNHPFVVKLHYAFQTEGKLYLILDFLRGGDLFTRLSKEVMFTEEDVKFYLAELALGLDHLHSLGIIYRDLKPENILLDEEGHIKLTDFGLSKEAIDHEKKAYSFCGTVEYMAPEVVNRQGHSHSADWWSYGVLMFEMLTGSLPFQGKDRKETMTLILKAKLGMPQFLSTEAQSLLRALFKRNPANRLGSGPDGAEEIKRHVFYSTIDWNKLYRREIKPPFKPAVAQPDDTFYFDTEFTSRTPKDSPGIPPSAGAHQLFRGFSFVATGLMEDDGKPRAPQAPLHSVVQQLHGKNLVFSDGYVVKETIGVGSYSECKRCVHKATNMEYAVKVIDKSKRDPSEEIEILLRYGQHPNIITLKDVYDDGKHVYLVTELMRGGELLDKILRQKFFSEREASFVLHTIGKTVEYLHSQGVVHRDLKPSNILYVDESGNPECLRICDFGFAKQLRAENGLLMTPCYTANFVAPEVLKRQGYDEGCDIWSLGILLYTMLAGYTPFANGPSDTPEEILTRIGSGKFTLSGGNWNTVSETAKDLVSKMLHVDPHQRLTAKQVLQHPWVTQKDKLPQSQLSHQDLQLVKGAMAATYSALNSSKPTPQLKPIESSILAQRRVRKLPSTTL
The target in assay [3] is T1, Serine/threonine-protein kinase 17B (Homo sapiens) (UniProt O94768).
T1 sequence (whole entry): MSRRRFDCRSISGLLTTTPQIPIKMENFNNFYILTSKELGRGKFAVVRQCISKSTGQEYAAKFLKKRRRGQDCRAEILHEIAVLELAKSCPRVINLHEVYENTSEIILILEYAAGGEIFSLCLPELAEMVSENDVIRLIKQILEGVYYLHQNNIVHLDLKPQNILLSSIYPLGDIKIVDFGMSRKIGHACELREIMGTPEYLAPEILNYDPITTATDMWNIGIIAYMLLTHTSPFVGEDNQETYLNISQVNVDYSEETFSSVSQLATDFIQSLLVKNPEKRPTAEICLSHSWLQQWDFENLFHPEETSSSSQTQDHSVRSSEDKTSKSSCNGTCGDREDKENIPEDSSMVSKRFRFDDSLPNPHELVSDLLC
The note with it: at 10 µM.

For assay [4], the target named is T2, Calcium/calmodulin-dependent protein kinase type IV (Homo sapiens) (UniProt Q16566).
T2 sequence (whole entry): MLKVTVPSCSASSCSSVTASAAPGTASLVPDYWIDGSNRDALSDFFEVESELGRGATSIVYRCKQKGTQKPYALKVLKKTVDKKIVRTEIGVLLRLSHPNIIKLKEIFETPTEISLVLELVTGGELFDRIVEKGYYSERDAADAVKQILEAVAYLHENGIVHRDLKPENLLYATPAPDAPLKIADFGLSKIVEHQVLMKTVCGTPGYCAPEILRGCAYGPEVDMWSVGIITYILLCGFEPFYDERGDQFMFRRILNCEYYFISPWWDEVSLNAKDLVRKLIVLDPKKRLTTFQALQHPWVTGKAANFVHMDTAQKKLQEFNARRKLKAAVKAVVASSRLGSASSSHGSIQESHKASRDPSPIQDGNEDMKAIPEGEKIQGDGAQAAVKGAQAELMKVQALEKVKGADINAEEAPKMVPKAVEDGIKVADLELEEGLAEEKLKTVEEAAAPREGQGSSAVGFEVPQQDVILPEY
Nature of the assay: Selectivity interaction (KinomeScan (DiscoverX)) EUB0000666a CAMK4. The settings on record: at 10 µM.

The target in assay [5] is T3, Serine/threonine-protein kinase tousled-like 1 (Homo sapiens) (UniProt Q9UKI8).
T3 sequence (whole entry): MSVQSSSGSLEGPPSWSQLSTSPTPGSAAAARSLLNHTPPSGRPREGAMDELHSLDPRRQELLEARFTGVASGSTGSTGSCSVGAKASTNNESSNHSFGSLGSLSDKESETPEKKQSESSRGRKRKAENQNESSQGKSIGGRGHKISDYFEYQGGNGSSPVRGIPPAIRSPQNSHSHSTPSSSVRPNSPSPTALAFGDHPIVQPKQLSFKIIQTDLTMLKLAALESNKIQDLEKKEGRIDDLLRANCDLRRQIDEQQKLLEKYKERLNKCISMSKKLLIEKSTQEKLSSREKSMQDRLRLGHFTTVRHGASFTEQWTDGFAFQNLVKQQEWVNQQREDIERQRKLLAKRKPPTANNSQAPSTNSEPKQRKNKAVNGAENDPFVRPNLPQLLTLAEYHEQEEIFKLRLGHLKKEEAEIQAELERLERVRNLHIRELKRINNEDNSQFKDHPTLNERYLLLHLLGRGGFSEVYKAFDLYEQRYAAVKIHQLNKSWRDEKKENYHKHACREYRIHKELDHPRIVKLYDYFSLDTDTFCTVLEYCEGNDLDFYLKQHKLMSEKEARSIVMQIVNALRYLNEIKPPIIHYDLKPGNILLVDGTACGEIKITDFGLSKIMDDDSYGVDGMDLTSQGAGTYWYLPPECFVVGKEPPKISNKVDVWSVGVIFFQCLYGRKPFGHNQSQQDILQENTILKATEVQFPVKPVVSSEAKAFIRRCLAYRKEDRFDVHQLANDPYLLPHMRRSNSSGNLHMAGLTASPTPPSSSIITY
Briefly: Selectivity interaction (KinomeScan (DiscoverX)) EUB0001049a TLK1. The note with it: at 1 µM.

Assay [6] concerns the target Tyrosine-protein kinase ABL2 (Homo sapiens, UniProt P42684). Briefly: Selectivity interaction (KinomeScan (DiscoverX)) EUB0000618a ABL2. The note with it: at 10 µM.
The target of assay [7] is Calcium/calmodulin-dependent protein kinase type II subunit gamma (Homo sapiens) (UniProt Q13555). Nature of the assay: Selectivity interaction (KinomeScan (DiscoverX)) EUB0000092b CAMK2G. The settings on record: at 10 µM.
Calcium/calmodulin-dependent protein kinase type II subunit gamma (Homo sapiens), sequence (Q13555 whole entry): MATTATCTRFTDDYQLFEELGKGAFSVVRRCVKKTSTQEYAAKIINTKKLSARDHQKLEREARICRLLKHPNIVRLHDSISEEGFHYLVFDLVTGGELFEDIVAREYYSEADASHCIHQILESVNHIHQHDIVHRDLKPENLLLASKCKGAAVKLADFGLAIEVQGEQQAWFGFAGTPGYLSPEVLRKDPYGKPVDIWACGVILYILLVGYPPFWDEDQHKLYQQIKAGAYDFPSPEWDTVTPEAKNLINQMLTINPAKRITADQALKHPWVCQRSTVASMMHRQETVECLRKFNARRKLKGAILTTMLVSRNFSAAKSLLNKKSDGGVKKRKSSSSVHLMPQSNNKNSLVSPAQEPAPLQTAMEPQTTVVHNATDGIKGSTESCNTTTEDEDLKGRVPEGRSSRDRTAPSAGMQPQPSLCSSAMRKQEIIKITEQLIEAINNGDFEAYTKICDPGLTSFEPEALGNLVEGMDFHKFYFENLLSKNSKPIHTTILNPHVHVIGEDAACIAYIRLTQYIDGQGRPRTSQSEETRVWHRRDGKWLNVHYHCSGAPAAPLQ
For assay [8], the target named is T4, Muscarinic acetylcholine receptor M1 (Homo sapiens) (UniProt P11229).
T4 sequence (whole entry): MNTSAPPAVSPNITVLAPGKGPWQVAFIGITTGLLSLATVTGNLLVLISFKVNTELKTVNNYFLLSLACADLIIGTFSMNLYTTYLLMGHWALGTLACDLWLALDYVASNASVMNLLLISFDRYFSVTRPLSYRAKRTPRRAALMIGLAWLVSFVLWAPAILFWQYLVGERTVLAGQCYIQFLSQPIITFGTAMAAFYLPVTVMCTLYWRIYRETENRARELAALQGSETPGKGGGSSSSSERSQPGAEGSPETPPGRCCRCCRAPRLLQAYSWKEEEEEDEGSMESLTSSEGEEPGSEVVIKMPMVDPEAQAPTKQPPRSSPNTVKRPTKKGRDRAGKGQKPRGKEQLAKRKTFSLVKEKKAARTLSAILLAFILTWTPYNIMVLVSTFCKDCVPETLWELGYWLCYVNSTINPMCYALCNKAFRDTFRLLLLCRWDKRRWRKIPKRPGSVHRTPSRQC
Briefly: Selectivity interaction (Panel of non-epigenetic targets (kinases, GPCRs, ion channels, and transporters, Eurofins) ) EUB0000271b CHRM1. The note with it: at 1 µM.

In ChEMBL document CHEMBL5465560, “Selectivity Literature for EUbOPEN Chemogenomic Library” (2024) one finds % of inhibition and % of control data, which are given here for eight compounds.

Cyclin-dependent kinase 5, sequence (Q00535 whole entry, looked up): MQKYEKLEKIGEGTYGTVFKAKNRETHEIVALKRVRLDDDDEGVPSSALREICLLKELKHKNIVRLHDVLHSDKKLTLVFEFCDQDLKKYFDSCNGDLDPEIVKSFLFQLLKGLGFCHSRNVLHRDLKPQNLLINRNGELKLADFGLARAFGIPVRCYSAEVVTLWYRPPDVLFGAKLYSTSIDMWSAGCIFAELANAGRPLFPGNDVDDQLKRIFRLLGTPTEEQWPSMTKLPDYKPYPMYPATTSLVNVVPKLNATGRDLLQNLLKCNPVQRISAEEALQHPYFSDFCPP
Tyrosine-protein kinase ABL2, sequence (P42684 whole entry): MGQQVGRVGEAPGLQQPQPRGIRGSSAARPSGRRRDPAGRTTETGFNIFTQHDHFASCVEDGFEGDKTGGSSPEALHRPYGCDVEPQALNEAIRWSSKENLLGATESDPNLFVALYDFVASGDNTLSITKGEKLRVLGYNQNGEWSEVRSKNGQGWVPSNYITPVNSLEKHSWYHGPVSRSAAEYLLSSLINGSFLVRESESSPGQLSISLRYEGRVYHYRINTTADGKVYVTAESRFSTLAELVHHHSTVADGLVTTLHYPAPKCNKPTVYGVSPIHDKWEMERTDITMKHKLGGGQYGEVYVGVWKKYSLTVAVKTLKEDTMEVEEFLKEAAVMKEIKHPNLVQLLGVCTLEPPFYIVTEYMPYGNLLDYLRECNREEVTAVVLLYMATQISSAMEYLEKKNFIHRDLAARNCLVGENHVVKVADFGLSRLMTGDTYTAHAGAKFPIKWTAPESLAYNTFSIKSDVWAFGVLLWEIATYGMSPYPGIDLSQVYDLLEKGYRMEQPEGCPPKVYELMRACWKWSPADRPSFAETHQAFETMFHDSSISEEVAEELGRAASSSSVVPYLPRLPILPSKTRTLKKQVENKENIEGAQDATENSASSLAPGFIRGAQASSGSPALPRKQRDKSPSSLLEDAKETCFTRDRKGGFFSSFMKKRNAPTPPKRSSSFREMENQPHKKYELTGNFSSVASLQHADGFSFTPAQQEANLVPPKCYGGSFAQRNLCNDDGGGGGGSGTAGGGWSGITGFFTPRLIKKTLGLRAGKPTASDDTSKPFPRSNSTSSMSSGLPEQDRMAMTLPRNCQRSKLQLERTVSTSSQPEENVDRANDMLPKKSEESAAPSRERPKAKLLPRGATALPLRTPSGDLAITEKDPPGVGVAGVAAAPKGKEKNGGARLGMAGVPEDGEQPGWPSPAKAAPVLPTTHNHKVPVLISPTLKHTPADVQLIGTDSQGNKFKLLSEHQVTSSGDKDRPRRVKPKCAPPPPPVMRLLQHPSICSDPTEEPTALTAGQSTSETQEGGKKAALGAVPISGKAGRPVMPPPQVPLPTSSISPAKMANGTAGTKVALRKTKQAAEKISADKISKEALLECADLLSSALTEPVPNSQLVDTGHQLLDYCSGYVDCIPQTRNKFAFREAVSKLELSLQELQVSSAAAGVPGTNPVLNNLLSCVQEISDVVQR

For `Cn1cc(-n2cnc3c(NCc4nc5cc(Cl)c(Cl)cc5[nH]4)nc(N4CCOCC4)nc32)cn1`, the % of inhibition in assay [1] was -96.6%. Take `N#Cc1cccc(-c2c[nH]c3ncnc(N4CCOCC4)c23)c1`: the % of inhibition in assay [2] is -1%. In assay [3], `CCN(CC)CCCCNc1ncc2cc(-c3cc(OC)cc(OC)c3)c(NC(=O)NC(C)(C)C)nc2n1` yielded a % of control of 100%. Turning to `O=C(NOC[C@H](O)CO)c1ccc(F)c(F)c1Nc1ccc(I)cc1F`, the % of control in assay [4] worked out at 100%. Take `COc1cc(Nc2nc(C)cc(-c3cnn4nc(OC)ccc34)n2)cc(C(F)(F)F)c1`: the % of control in assay [5] turned out to be 100%. With `O[C@H]1CC[C@H](Nc2ncc3nc(Nc4c(F)cc(F)cc4F)n([C@H]4CCOC4)c3n2)CC1`, the % of control in assay [6] was 100%. On to `CCC(=O)N1CCN(c2ccc(-n3c(=O)ccc4cnc5ccc(-c6cnc7ccccc7c6)cc5c43)cc2C(F)(F)F)CC1`, for which the % of control in assay [7] came out at 79%. On to `Cc1cc(C)cc([C@@H]2c3cc(C)ccc3NC(=O)CN2C(=O)c2ccc(Br)s2)c1`, for which the % of inhibition in assay [8] is -2%.
